Assays:
Inner ear stem cells = assay: Hair cell differentiation of inner ear stem cells (Math1-GFP and myosin 7a co-labeling); assay type: cell-based; conditions: cells co-labeled with Math1-GFP and myosin 7a; control 1.6%
Text: Inner ear stem cells were exposed to compound CP.-0000540, which was selected at random from the group of 110 positive compounds described in Example 2.
Hair cell differentiation was increased to 5.1% of total cells compared to 1.6% for control.

[1] = LD50 (median lethal dose) determination; assay type: cell-based
Text: IC50 is a measure of the effectiveness of a compound in inhibiting biological or biochemical function. LD50 is the amount of a compound required to kill half the members of a tested population.

Math1 mRNA = Math1 mRNA expression by RT-PCR in HEK cells; assay type: cell-based, human; conditions: among the four randomly selected compounds
Protocol: Ten compounds, randomly selected from the group of 110 compounds identified in Example 2, were further evaluated, as follows. HEK cells were plated on 96 well plates at a density of 100000 cells per well. One day after plating, 0.1, 1, and 5 μM of each positive compound was added per well in a 10% fetal bovine serum (FBS) DMEM solution. Cells were then lysed 48 hours after addition of the compound and Math1 expression was analyzed using a luciferase reporter assay, as described above, and real-time PCR.
RNA was also isolated and Math1 transcripts were amplified using high-throughput RT-PCR.

[2] = tested on: Math1 enhancer and minimal promoter Luciferase reporter in HEK cells; assay: Math1 Luciferase reporter assay in HEK cells; assay type: cell-based, human; conditions: Homo sapiens, HEK293
Procedure, shortened: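 HEK cells stably carrying luciferase under the Math1 enhancer and minimal promoter were treated with compounds for 48 hours at 37° C, then lysed for luminescence, normalized to DMSO. Hits were defined as a 2-fold increase, with 1 μM retinoic acid as positive control. Follow-up used 0.1, 1 and 5 μM for 48 hours in 10% FBS DMEM, read by luciferase and real-time PCR.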

## Clc1ccc2nc(-c3ccccc3)n(OCc3ccccc3Cl)c2c1 [CP-0000540, 6-chloro-1-(2-chlorobenzyloxy)-2-phenyl-1H-benzo[d]imidazole]
Inner ear stem cells
  Hair cell differentiation: 5.1 % of total cells
[1]
  LD50: >30 µM
Math1 mRNA
  increase in Math1 mRNA expression (ranking in words): highest increase
[2]; read-out: IC50
  IC50: 1300 nM
[2]; read-out: Maximum (Fold DMSO)
  maximal fold induction: 2

— US11160808B2, “Compounds that enhance Atoh1 expression” (Massachusetts Eye & Ear Infirmary, priority 2008, dated 2021)
